Source: patent publication US5670514A, “Compositions for inhibiting bone loss” (priority 1996, dated 1997)

Molecular target: T1, Human Type I Steroid 5α-Reductase (Homo sapiens, UniProt P18405)
T1 construct: Preparation of Type I 5α-Reductase from Human Scalp; from tissue; host or cells: human scalp skin (punch biopsies from hair transplant graft recipient sites), 100,000 x g pellet of homogenate
T1 sequence (P18405 1-259): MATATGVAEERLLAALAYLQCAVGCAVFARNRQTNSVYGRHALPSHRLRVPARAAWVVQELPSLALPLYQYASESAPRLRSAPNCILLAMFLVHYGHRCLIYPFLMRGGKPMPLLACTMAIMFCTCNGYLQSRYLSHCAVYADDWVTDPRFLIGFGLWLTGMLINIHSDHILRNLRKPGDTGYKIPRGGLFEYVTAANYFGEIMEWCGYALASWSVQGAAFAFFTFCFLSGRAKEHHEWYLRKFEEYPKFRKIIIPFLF
Assay: Human Type I Steroid 5α-Reductase homogenate assay (human scalp enzyme; conversion of [3H]-testosterone to [3H]-5α-dihydrotestosterone and other 5α-reduced metabolites)
Format: biochemical
Settings: 0.3 μM; compared to control reaction mixtures; 50 nM [3H]-testosterone, pH 7.5, 25°, 180 min
From the text: Methodology of Human Type I Steroid 5α-Reductase Assays
The subcutaneous tissue was cut away and discarded. The skin was frozen with liquid nitrogen and pulverized to powder. […] The homogenization procedure consisted of four 15 second pulses. Connective tissue was cleared from the probe with forceps between pulses. […] The pellet was resuspended by homogenization with a Dounce homogenizer using the same buffer solution. An aliquot was taken for protein determination by the Lowry method, Lowry, et al., Protein Measurement with the Folin Phenol Reagent, J. Biol. Chem., 193, 265-75 (1951). Aliquots of the enzyme preparation were stored at -80° until use.
The reaction was initiated by the addition of 0.5 mg of Type I 5α-reductase. The reaction mixture was incubated at 25° for 180 min, and terminated by the addition of 1 mL ice-cold stopping solution. […] The samples were prepared for high performance liquid chromatography by solid phase extraction. […] The reaction mixtures were then applied to the columns. The columns were subsequently washed with 5 mL of acetone:water (1:4), followed by 0.3 mL of methanol. The samples were then eluted with 3 mL of methanol and collected in 20 mL scintillation vials. Three mL of water was then added to each scintillation vial. […] The column temperature was maintained at 35° and the flow rate was 1.5 mL/min.

Compound | percent inhibition of Type I 5AR
CN1C(=O)CC[C@]2(C)c3ccc(-c4cccc(NC(=O)C(C)(C)C)c4)cc3CC[C@@H]12 [Example 34, (+)-(4aR)-(10bR)-4-methyl-8-(3-t-butylcarboxamidophenyl)-10b-methyl-1,2,3,4,4a,5,6,10b-octahydrobenzo[f]quinolin-3-one] | 13%
CN1C(=O)CC[C@]2(C)c3ccc(-c4cccc(NC(=O)C5CCN(Cc6ccccc6)CC5)c4)cc3CC[C@@H]12 [Example 209, (+)-(4aR)-(10bR)-4-methyl-8-(3-[1-benzyl-4-piperidinyl-carboxamido]phenyl)-10b-methyl-1,2,3,4,4a,5,6,10b-octahydrobenzo[f]quinolin-3-one] | 24%
CN1C(=O)CC[C@]2(C)c3ccc(-c4ccc(-c5ccc(NC(=O)C(C)(C)C)s5)cc4)cc3CC[C@@H]12 [Example 222, (+)-(4aR)-(10bR)-4-methyl-8-(4-[(2-t-butylcarbonylamino]-5-thienyl]phenyl)-10b-methyl-1,2,3,4,4a,5,6,10b-octahydro-benzo[f]quinolin-3-one] | 86%
(+)-(4aR)-(10bR)-4-methyl-8-benzyloxycarbonyl-10b-methyl-1,2,3,4,4a,5,6,10b-octahydrobenzo[f]quinolin-3-one [Example 144] | 90%
